Assays:
JNK = test: Western blot of JNK activity in TGF-β1 treated HLF; format: cell-based, human
Smad 3-SBE-272 = test: ChIP of the Smad 3-SBE-272 complex; format: cell-based, human
Procedure: ChIP was performed using Chromatin Immunoprecipitation Assay Kit from Millipore (Schwalbach, Germany) according to manufacturer's instruction. […] The cross-linked chromatin was then prepared and sonicated to an average size of 500-800 bp. The DNA fragments were immunoprecipitated with rabbit anti-Smad 3 antibody (Cell Signaling) or IgG isotype control overnight at 4° C. After reversal of cross-linking, the immunoprecipitated chromatin was amplified by PCR using following primers: human FXII-299 bp forward: [NT] ID NO:25); human FXII-299 bp reverse: [NT] ID NO:26).

Smad 3 [1] = test: TGF-β1 driven translocation of phospho-Smad 3 to the nucleus in HLF; format: cell-based, human
Procedure: Proteins separated on SDS polyacrylamide gel were transferred to a PVDF membrane (Amersham Biosciences, Freiburg, Germany) using wet transfer technique in transfer buffer (25 mM Tris, 192 mM Glycine, 20% (v/v) Methanol) for 1 h at 100V. After blocking with 5% non-fat dry milk in tris-buffered saline (TBS; 25 mM Tris-Cl, 150 mM NaCl, pH 7.5) containing 0.1% (v/v) Tween 20 (TBS-T), the membranes were incubated at 4° C. overnight with appropriate primary antibody diluted in 1% BSA in TBS-T. After 1 h incubation with peroxidase-labelled secondary antibody (all from Dako, Gostrup, Denmark) proteins were detected using ECL Plus Kit (Amersham Biosciences, Freiburg, Germany). To determine the amounts of protein loaded on the gel, blots were in 1 hour (stripping buffer: 100 mM Glycine, 1% HCl) and reprobed using an anti-β-actin or appropriate anti-pan antibody. […]
[…]. […] After boiling, the DNA-bound proteins were analyzed by Western blot using rabbit anti-phospho Smad 3 antibody (Cell Signaling). […]

FXII = test: TGF-β1-induced FXII expression in HLF; format: cell-based, human; details: HLF treated with inhibitor 1 h prior to TGF-β1 for 48 h
Procedure: Human lung specimens of the pulmonary parenchyma and mouse lungs were chopped into <1 mm^3 pieces. The minced pieces were washed twice with PBS and then plated in 100-mm dishes (Greiner-bio-one, Frickenhausen, Germany). The specimens were cultured with Dulbecco's modified Eagle's medium (DMEM; Invitrogen, Karlsruhe, Germany) supplemented with 10% fetal calf serum (FCS; HyClone, South Logan, UT), and 1% penicillin/streptomycin (Invitrogen) in humidified atmosphere of 5% CO2 at 37° C. Purity of isolated fibroblasts was verified by positive staining for vimentin, fibronectin and collagen IV. All experiments were carried out with lung fibroblasts from passages 3-4. The mouse NIH3T3 fibroblasts were cultured in DMEM supplemented with 10% FCS, and 1% penicillin/streptomycin in humidified atmosphere of 5% CO2 at 37° C.
(§1) Proteins separated on SDS polyacrylamide gel were transferred to a PVDF membrane (Amersham Biosciences, Freiburg, Germany) using wet transfer technique in transfer buffer (25 mM Tris, 192 mM Glycine, 20% (v/v) Methanol) for 1 h at 100V. After blocking with 5% non-fat dry milk in tris-buffered saline (TBS; 25 mM Tris-Cl, 150 mM NaCl, pH 7.5) containing 0.1% (v/v) Tween 20 (TBS-T), the membranes were incubated at 4° C. overnight with appropriate primary antibody diluted in 1% BSA in TBS-T. After 1 h incubation with peroxidase-labelled secondary antibody (all from Dako, Gostrup, Denmark) proteins were detected using ECL Plus Kit (Amersham Biosciences, Freiburg, Germany). To determine the amounts of protein loaded on the gel, blots were in 1 hour (stripping buffer: 100 mM Glycine, 1% HCl) and reprobed using an anti-β-actin or appropriate anti-pan antibody.
Pre-designed, commercially available siRNA sequences directed against human Smad 3 (Dharmacon, Chicago, Ill.), human JNK1 (Abnova, Heidelberg, Germany), and an universal negative-control siRNA (Ambion, Austin, Tex.) were employed. Cells were treated with siRNA (250 nM each) using the X-treme Gene siRNA Transfection Reagent (Roche). The siRNA-mediated downregulation of the target genes was assessed 72 h after transfection by Western blotting.

Smad 3 [2] = test: Western blot of Smad 3 phosphorylation in TGF-β1 treated HLF; format: cell-based, human
Procedure: as §1

FXII promoter = FXII promoter luciferase assay in NIH3T3 cells; details: pGL3-299 construct; inhibitor 1 h prior to 10 ng/ml TGF-β1
FXIIa = target: T1, FXIIa (Homo sapiens, UniProt P00748); details: cited from earlier work
T1 sequence (P00748 373-615 limits assumed): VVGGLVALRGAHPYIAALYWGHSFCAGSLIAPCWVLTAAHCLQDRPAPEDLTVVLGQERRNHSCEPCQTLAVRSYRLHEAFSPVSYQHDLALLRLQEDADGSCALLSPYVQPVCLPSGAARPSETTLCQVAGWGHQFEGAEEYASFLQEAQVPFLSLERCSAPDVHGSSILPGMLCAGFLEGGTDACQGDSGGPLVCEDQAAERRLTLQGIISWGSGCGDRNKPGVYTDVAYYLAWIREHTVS
T1 sequence (P00748 20-372 partner limits assumed): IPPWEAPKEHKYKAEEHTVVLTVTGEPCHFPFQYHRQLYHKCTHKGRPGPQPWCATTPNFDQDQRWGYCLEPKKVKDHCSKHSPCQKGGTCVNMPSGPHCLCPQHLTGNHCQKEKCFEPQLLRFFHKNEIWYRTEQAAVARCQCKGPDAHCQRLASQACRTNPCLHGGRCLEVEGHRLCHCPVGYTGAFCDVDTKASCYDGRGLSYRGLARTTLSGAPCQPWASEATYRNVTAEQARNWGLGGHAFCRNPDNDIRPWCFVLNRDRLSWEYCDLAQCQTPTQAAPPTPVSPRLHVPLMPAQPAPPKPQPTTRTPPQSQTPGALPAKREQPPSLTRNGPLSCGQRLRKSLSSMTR

Molecule	JNK activity / JNK1 phosphorylation in response to TGF-β1 (JNK)	TGF-β1 induced Smad 3-DNA complex formation (ChIP) (Smad 3-SBE-272; HLF pretreated with inhibitor 1 h prior to TGF-β1)	interaction of Smad3 with DNA, inhibitor alone (Smad 3-SBE-272; without TGF-β1, data not shown)	TGF-β1-induced Smad 3 translocation to the nucleus (Smad 3 [1]; HLF pretreated with inhibitor, TGF-β1 1 h)	accumulation of Smad 3 in the nucleus, inhibitor alone (Smad 3 [1]; HLF, without TGF-β1, data not shown)	FXII expression in response to TGF-β1 (Western blot) (FXII)	Smad 3 phosphorylation in response to TGF-β1 (Smad 3 [2])	TGF-β1 driven luciferase activity (FXII promoter)	prolonging activated partial thromboplastin time (FXIIa)
NC(=O)c1ccc(-c2nc(-c3ccc4c(c3)OCO4)c(-c3ccccn3)[nH]2)cc1 [SB431542]	attenuated	completely abolished	did not affect	completely blocks	did not affect	reduction of FXII expression	attenuated	strongly reduced	
Infestin-4: Kazal-type serine protease inhibitor domain 4 from Triatoma infestans, FXIIa inhibitor (SEQ ID NO: 33) (EVRNPCACFRNYVPVCGSDGKTYGNPCMLNCAAQTKVPGLKLVHEGRC; Triatoma infestans)									approximately three-fold
